Patent US12473250B2, “Molecular design of new antibiotics and antibiotic adjuvants against MCR strains” (priority 2019, dated 2025)
Values after ≈ are worked out from the molar mass of the structure shown.

How the values were obtained:
[1] = test system: colistin resistant MCR (+) E. Coli strains; assay: MIC, broth microdilution, compound alone; format: cell-based
How it was run: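 Modified CLSI broth microdilution; inoculum from 18–20 h TSA colonies adjusted to 0.5 McFarland, ~5×10^5 CFU/mL per well. Plates incubated 24 h at 35 °C; turbidity may be read at OD600. MIC defined as concentration giving 99% inhibition.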

[2] = test system: KLPN multi-drug resistant strains; assay: MIC against multi-drug resistant strains (Table 5); format: cell-based, Klebsiella pneumonia; settings: alone
Description: (§1) MIC experiments of the antimicrobial agents were determined by a modified broth microdilution method in accordance with the Clinical and Laboratory Standards Institute (CLSI) guidelines using 96 well culture plates. In brief, serial dilutions of all plates were prepared at different concentrations (μg). The inoculum suspension was prepared by adding isolated colonies from a 18-20 hours on TSA plate into phosphate buffer (0.31 mM, pH 7.2) or in water for injection (BBraun) and adjusting the suspension to a turbidity equivalent to 0.5 McFarland Standard. Each well contained a final bacterial concentration of approximately 5×10^5 colony forming units (CFU)/mL. The plate was covered and incubated at 35° C. for 24 hours. […] For the microdilution plates, turbidity in wells can be measured at OD600 using TECAN infinite M200Pro. MIC was determined as […] concentration that gives a 99 percent inhibition.

[3] = test system: ACBA multi-drug resistant strains; assay: MIC against multi-drug resistant strains (Table 5); format: cell-based, Acinetobacter baumannii; settings: alone
Description: as §1

[4] = test system: ENT CLOACAE multi-drug resistant strains; assay: MIC against multi-drug resistant strains (Table 5); format: cell-based, E. cloacae; settings: alone
Description: as §1

[5] = test system: colistin resistant mcr-1 (+) strains 6083655967, 6075066346 and mcr-1 (−) strain 7023446108; assay: Time kill study; format: cell-based, E. coli; settings: in 2 hours
Description: Time kill assay is used to determine the rate at which concentrations an antimicrobial agent kill a bacterial isolate. The bacterial suspension was adjusted to 10^6 to 10^7 CFU/mL with different concentrations of LC compounds and the antibiotics for comparison in separate tubes that incubated at 35° C. For synergy time kill: Two different antimicrobial agents which are antibiotic/LC compounds were added in an equal amount make a final volume to 1 mL (e.g: 500 μL of Antibiotic: 500 μL of LC compound) and subsequently 1 mL of prepared bacteria suspension were added into the same tube. Aliquots of 100 μL samples will be withdrawn at different time intervals (0, 1, 2, 4, 8, 24 hours) and were plated on Mueller Hinton Agar (MHA) upon set of serial dilutions. Subsequently, after 24 and 48 hours, all the plates were checked for bacteria growth and the colonies were calculated for colony-forming unit (CFU/mL) numeration and the time kill curve plotted with logarithm of the viable count against time. The results from various concentrations of antibiotics and control were plotted.
To understand the action of the combinations of LC100 with colistin, time kill experiments using the inventive combination in three colistin resistant strains, including two mcr-1(+) and one mcr-1(−) strains, were carried out.

mcr-1 bacterial membrane = assay: Ethidium bromide (EtBr) fluorescence, membrane disruption; format: cell-based; settings: mcr-1 bacteria; in words
Description: However, EtBr is membrane impermeable, which means that it can only enter the bacterial cell and bind to DNA and emit fluorescence only when both the bacterial outer and inner membranes are perturbed. […] It is also possible that LC100 may have other targets. One possible target is the MCR-1 protein. To understand the interaction of LC100 and the MCR-1 protein, the fluorescence of MCR-1 protein in the presence of different concentration of LC100 was measured. MCR-1 protein contains several tryptophan residues, and autofluoresces at 323 nm.

[6] = test system: MCR positive E. coli Clinical isolate 6083655967; format: in vivo; settings: for reduction in bacterial burden: neutropenic mice, i.p. 1 hour after infection, 6 hours after treatment, colistin 10 mg/kg, LC100 50 mg/kg, meropenem 100 mg/kg, combination 50 + 10 mg/kg
Description: FIG. 21 refers to graphs showing the efficacy testing of combination of LC100 and Colistin in neutropenic mouse thigh infection model infected with MCR positive E. coli Clinical isolate 6083655967. Starting inoculum was 1.87×10^6, N=3. “Combination” refers to Colistin 10 mg/kg+LC100 50 mg/kg. Each treatment was done intraperitoneally 1 hour after infection. 6 hours after treatment, mouse thigh tissues were homogenized for viable CFU.
The combination of colistin and antimicrobial peptide (LC100) was tested against E. coli clinical isolate MCR-positive strain 6083655967 in a neutropenic mouse thigh infection model. C57BL/6 mice were rendered neutropenic by cyclophosphamide, dosed at 150 and 100 mg kg-1 delivered on days −4 and −1 prior to infection. Bacteria were suspended in sterile saline and adjusted to a concentration of ˜1.876×10^6 CFU per infection site (100 micro-liters) and injected intramuscularly into the right thigh of five mice per treatment group. At 1 h post infection, mice received colistin ([…], i.p. n=5), LC100 (50 mg kg-1, i.p. n=5), untreated (n=5), or the combination (n=5). Mice were euthanized 6 h after infection; thigh tissue was aseptically collected, homogenized, serially diluted in PBS and plated onto solid TSA supplemented plates. Plates were incubated overnight at 37° C. and colonies were quantified to determine bacterial load.
To evaluate the in vivo efficacy of the combination of LC100 and colistin, a neutropenic mouse thigh infection model was used. 30 mice were classed into 5 groups: control, colistin at 10 mg/kg, LC100 at 50 mg/kg, meropenem at 100 mg/kg and combination of 50 mg/kg of LC100 and 10 mg/kg of colistin. Each treatment was administered intraperitoneally 1 hour after infection. The starting inoculum was 1.87×10^6, and 6 hours after treatment, mouse thigh tissues were homogenized for viable CFU. […] As neutropenic mice were used in the study, the 1.2 log reduction in bacterial burden is due to the combination of LC100 and colistin rather than the immune system of the mouse.

[7] = strain 6075066346, MCR (+), compound alone
[8] = strain 6083655967, MCR (+), compound alone
[9] = strain 6103645107, MCR (+), compound alone
[10] = strain 6123520276, MCR (+), compound alone
[11] = strain 7013177695, MCR (+), compound alone
[12] = strain 7023436560, MCR (+), compound alone

Row | Compound | MIC [1, 7] | MIC [1, 8] | MIC [1, 9] | MIC [1, 10] | MIC [1, 11] | MIC [1, 12] | MIC ([2]; strain KLPN 8852) | MIC ([2]; strain KLPN 15588) | MIC ([2]; strain KLPN 24076) | MIC ([2]; strain KLPN 27025) | MIC ([3]; strain ACBA 1010) | MIC ([3]; strain ACBA 1012) | MIC ([3]; strain ACBA 43357) | MIC ([3]; strain ACBA ATCC 19606) | MIC ([4]; strain ENT CLOACAE 6780) | MIC ([4]; strain ENT CLOACAE 21489) | MIC ([4]; strain ENT CLOACAE 30063) | MIC ([4]; strain ENT CLOACAE 44095) | EtBr fluorescence (mcr-1 bacterial membrane) | reduction in bacterial burden [6] | further results
1 | CCN(CC)CCCCOc1ccc(/C=C/C(=O)c2ccc(OCCCCN(CC)CC)c(CC=C(C)C)c2O)cc1 [LC100] | 100 µg/mL (≈ 173 µM) | 100 µg/mL (≈ 173 µM) | 100 µg/mL (≈ 173 µM) | 100 µg/mL (≈ 173 µM) | 100 µg/mL (≈ 173 µM) | 100 µg/mL (≈ 173 µM) | >50 µg/mL | >50 µg/mL | >50 µg/mL | >50 µg/mL | 25 µg/mL (≈ 43.2 µM) | 50 µg/mL (≈ 86.4 µM) | 50 µg/mL (≈ 86.4 µM) | >50 µg/mL | >50 µg/mL | >50 µg/mL | >50 µg/mL | >50 µg/mL | slight fluorescence | cannot reduce the bacterial burden | antimicrobial activity when used alone ([1]; colistin resistant bacteria, in words): no activity; MIC ([1]; strain 7028444207 (Table 1b), MCR (+), compound alone): 100 µg/mL (≈ 173 µM); log reduction in time kill ([5]; ⅛ MIC of colistin in the presence of 10 μg/ml of LC100): 3 log; observations in treated mice ([6]; LC100 50 mg/kg or Colistin 10 mg/kg+LC100 50 mg/kg, intraperitoneally): Abdominal distension
2 | Colistin | 6.25 µg/mL | 6.25 µg/mL | 6.25 µg/mL | 6.25 µg/mL | 6.25 µg/mL | 6.25 µg/mL | >50 µg/mL | 1.56 µg/mL | 1.56 µg/mL | 1.56 µg/mL | 0.78 µg/mL | 0.78 µg/mL | 3.125 µg/mL | 1.56 µg/mL | 1.56 µg/mL | 0.78 µg/mL | >50 µg/mL | >50 µg/mL | slight fluorescence | cannot reduce the bacterial burden | colistin MIC ([1]; colistin alone): more than 6 μg/ml; MIC ([1]; panel of colistin resistant strains): 6.25 µg/mL; MIC ([1]; strain 7023444207, MCR (+), compound alone): 6.25 µg/mL; log reduction in time kill ([5]; colistin at concentrations equal or above the MIC): 3 log
